Measured values reported in the supplement of paper PMC10627819.

Assays:
Conditions in all cases: main component drawn
B. subtilis 168 [1] = assay: fitness (endpoint OD595 vs no drug) (fraction); higher = more growth
How it was run: (§1)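 At 37 °C, bacteria in TSB, LB Lennox or CY were grown in 384-well plates from a starting OD595 of 0.01. OD595 was measured every 30 min for 14 h, with the first reading used as background. Fitness is the optical density at the switch to stationary phase as a fraction of the robust mean of no-drug control wells, capped at 1.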

S. aureus Newman [2] = assay: as above
How it was run: as §1

S. aureus DSM 20231 = assay: Bliss interaction score (quartile over a dose matrix) (fitness difference); higher = more antagonism (negative = synergy)
How it was run: (§2)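 Fitness is OD595 at stationary-phase entry relative to the plate's robust no-drug mean, capped at 1. Single-drug fitness was inferred from combinations. The Bliss score is observed minus product-expected fitness, summarised by quartiles over technical, biological and donor/recipient replicates.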

B. subtilis 168 [3] = assay: as above
How it was run: as §2

S. aureus Newman [4] = assay: as above
How it was run: as §2

S. pneumoniae D39V = assay: as above
How it was run: as §2
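For Bliss interaction score (quartile over a dose matrix) in this document: first quartile when negative (synergy) and third quartile when positive (antagonism).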

CC[C@H](C)[C@H](N)C1=N[C@H](C(=O)N[C@@H](CC(C)C)C(=O)N[C@H](CCC(=O)O)C(=O)N[C@H](C(=O)N[C@H]2CCCCNC(=O)[C@H](CC(N)=O)NC(=O)[C@@H](CC(=O)O)NC(=O)[C@H](Cc3cnc[nH]3)NC(=O)[C@@H](Cc3ccccc3)NC(=O)[C@H]([C@@H](C)CC)NC(=O)[C@@H](CCCN)NC2=O)[C@@H](C)CC)CS1 [Bacitracin] + CN(C)c1cc(NC(=O)CNC(C)(C)C)c(O)c2c1C[C@H]1C[C@H]3[C@H](N(C)C)C(O)=C(C(N)=O)C(=O)[C@@]3(O)C(O)=C1C2=O [Tigecycline]
fitness
Conditions	partner 0.039 µg/mL	partner 0.078 µg/mL	partner 0.156 µg/mL
B. subtilis 168 [1], first compound 37.5 µg/mL	0.997	0.946	0.867
B. subtilis 168 [1], first compound 75 µg/mL	≥ 1	0.859	0.933
S. aureus Newman [2], first compound 18.75 µg/mL	0.705	0.707	0.724
S. aureus Newman [2], first compound 75 µg/mL	0.0511	0.058	0.0883

fitness, B. subtilis 168 [1], one replicate
Conditions	first compound 37.5 µg/mL	first compound 75 µg/mL	first compound 150 µg/mL
partner 0.125 µg/mL	≥ 1	≥ 1	≥ 1
partner 0.25 µg/mL	0.907	0.892	0.855
partner 0.5 µg/mL	0.915	0.947	0.914

Conditions	Bliss interaction score
B. subtilis 168 [3]	0.0848
S. aureus DSM 20231	0.0393
S. aureus Newman [4]	0.0592
S. pneumoniae D39V	0.0672

CC[C@H](C)[C@H](N)C1=N[C@H](C(=O)N[C@@H](CC(C)C)C(=O)N[C@H](CCC(=O)O)C(=O)N[C@H](C(=O)N[C@H]2CCCCNC(=O)[C@H](CC(N)=O)NC(=O)[C@@H](CC(=O)O)NC(=O)[C@H](Cc3cnc[nH]3)NC(=O)[C@@H](Cc3ccccc3)NC(=O)[C@H]([C@@H](C)CC)NC(=O)[C@@H](CCCN)NC2=O)[C@@H](C)CC)CS1 [Bacitracin] + CN(N=O)C(=O)N[C@@H](C=O)[C@@H](O)[C@H](O)[C@H](O)CO [Streptozotocin]
fitness
Conditions	partner 0.15 µg/mL	partner 0.3 µg/mL	partner 0.6 µg/mL
B. subtilis 168 [1], first compound 37.5 µg/mL	0.913	0.856	0.906
B. subtilis 168 [1], first compound 75 µg/mL	0.806	0.857	0.876
S. aureus Newman [2], first compound 18.75 µg/mL	0.59	0.526	0.245
S. aureus Newman [2], first compound 37.5 µg/mL	0.124	0.0706	0.0163
S. aureus Newman [2], first compound 75 µg/mL	0.0279	0.0183	0.0064

Conditions	Bliss interaction score
B. subtilis 168 [3]	0.0453
S. aureus DSM 20231	-0.0576
S. aureus Newman [4]	-0.104
S. pneumoniae D39V	-0.0625

CC[C@H](C)[C@H](N)C1=N[C@H](C(=O)N[C@@H](CC(C)C)C(=O)N[C@H](CCC(=O)O)C(=O)N[C@H](C(=O)N[C@H]2CCCCNC(=O)[C@H](CC(N)=O)NC(=O)[C@@H](CC(=O)O)NC(=O)[C@H](Cc3cnc[nH]3)NC(=O)[C@@H](Cc3ccccc3)NC(=O)[C@H]([C@@H](C)CC)NC(=O)[C@@H](CCCN)NC2=O)[C@@H](C)CC)CS1 [Bacitracin] + CN[C@@H]1[C@H](O)[C@H](NC)[C@H]2O[C@@]3(O)C(=O)C[C@@H](C)O[C@H]3O[C@@H]2[C@H]1O [Spectinomycin]
fitness
Conditions	partner 2 µg/mL	partner 4 µg/mL	partner 8 µg/mL	partner 16 µg/mL
B. subtilis 168 [1], first compound 37.5 µg/mL	0.903	0.933	0.863	–
B. subtilis 168 [1], first compound 75 µg/mL	0.889	0.911	0.829	–
S. aureus Newman [2], first compound 18.75 µg/mL	–	0.652	–	–
S. aureus Newman [2], first compound 75 µg/mL	–	0.0188	0.0181	0

fitness, S. aureus Newman [2], one replicate
Conditions	first compound 18.75 µg/mL	first compound 37.5 µg/mL	first compound 75 µg/mL
partner 32 µg/mL	0.0067	0.0186	0
partner 64 µg/mL	0.0327	0.0167	0.003

Conditions	Bliss interaction score
B. subtilis 168 [3]	0.0682
S. aureus DSM 20231	0.0546
S. aureus Newman [4]	-0.165
S. pneumoniae D39V	-0.186

CC[C@H](C)[C@H](N)C1=N[C@H](C(=O)N[C@@H](CC(C)C)C(=O)N[C@H](CCC(=O)O)C(=O)N[C@H](C(=O)N[C@H]2CCCCNC(=O)[C@H](CC(N)=O)NC(=O)[C@@H](CC(=O)O)NC(=O)[C@H](Cc3cnc[nH]3)NC(=O)[C@@H](Cc3ccccc3)NC(=O)[C@H]([C@@H](C)CC)NC(=O)[C@@H](CCCN)NC2=O)[C@@H](C)CC)CS1 [Bacitracin] + CN[C@@H]1[C@H](O[C@H]2[C@H](O[C@H]3[C@H](O)[C@@H](O)[C@H](N=C(N)N)[C@@H](O)[C@@H]3N=C(N)N)O[C@@H](C)[C@]2(O)C=O)O[C@@H](CO)[C@H](O)[C@H]1O [Streptomycin]
fitness
Conditions	first compound 18.75 µg/mL	first compound 37.5 µg/mL	first compound 75 µg/mL	first compound 150 µg/mL
B. subtilis 168 [1], partner 2 µg/mL	–	0.908	0.807	–
B. subtilis 168 [1], partner 8 µg/mL	–	0.0363	0.0188	0.0134
S. aureus Newman [2], partner 1 µg/mL	–	0.0508	0.0138	–
S. aureus Newman [2], partner 2 µg/mL	–	0.0177	0.0112	–
S. aureus Newman [2], partner 4 µg/mL	0.0347	0.0049	0.0045	–

Conditions	Bliss interaction score
B. subtilis 168 [3]	-0.234
S. aureus DSM 20231	-0.0869
S. aureus Newman [4]	-0.323
S. pneumoniae D39V	-0.146

CC[C@H](C)[C@H](N)C1=N[C@H](C(=O)N[C@@H](CC(C)C)C(=O)N[C@H](CCC(=O)O)C(=O)N[C@H](C(=O)N[C@H]2CCCCNC(=O)[C@H](CC(N)=O)NC(=O)[C@@H](CC(=O)O)NC(=O)[C@H](Cc3cnc[nH]3)NC(=O)[C@@H](Cc3ccccc3)NC(=O)[C@H]([C@@H](C)CC)NC(=O)[C@@H](CCCN)NC2=O)[C@@H](C)CC)CS1 [Bacitracin] + CO/N=C(\C(=O)N[C@@H]1C(=O)N2C(C(=O)O)=C(COC(C)=O)CS[C@H]12)c1csc(N)n1 [Cefotaxime]
fitness, B. subtilis 168 [1], one replicate
Conditions	partner 0.00775 µg/mL	partner 0.0155 µg/mL	partner 0.031 µg/mL	partner 0.0625 µg/mL	partner 0.125 µg/mL	partner 0.25 µg/mL
first compound 37.5 µg/mL	0.831	0.724	0.52	0.479	0.314	0.297
first compound 75 µg/mL	0.749	0.521	0.342	0.257	0.12	0.111
first compound 150 µg/mL	0.326	0.035	0	0.0561	0.0401	0.0433

fitness
Conditions	partner 0.078 µg/mL	partner 0.156 µg/mL	partner 0.312 µg/mL	partner 0.5 µg/mL	partner 0.625 µg/mL	partner 1 µg/mL	partner 1.25 µg/mL	partner 2 µg/mL	partner 2.5 µg/mL
B. subtilis 168 [1], first compound 37.5 µg/mL	–	–	–	0.274	–	0.137	–	0.134	–
B. subtilis 168 [1], first compound 75 µg/mL	–	–	–	0.202	–	0.0939	–	0.0639	–
B. subtilis 168 [1], first compound 150 µg/mL	–	–	–	0.0854	–	0.0162	–	0.0303	–
S. aureus Newman [2], first compound 18.75 µg/mL	0.465	0.0868	0.0343	–	0.0178	–	0.0266	–	0.0285
S. aureus Newman [2], first compound 37.5 µg/mL	0.0257	0.0132	0.0259	–	0.0287	–	0.0203	–	0.0237
S. aureus Newman [2], first compound 75 µg/mL	0.0416	0.031	0.0324	–	0.0342	–	0.0412	–	0.0372

Conditions	Bliss interaction score
B. subtilis 168 [3]	-0.1
S. aureus DSM 20231	-0.0827
S. aureus Newman [4]	-0.1
S. pneumoniae D39V	-0.0668

CC[C@H](C)[C@H](N)C1=N[C@H](C(=O)N[C@@H](CC(C)C)C(=O)N[C@H](CCC(=O)O)C(=O)N[C@H](C(=O)N[C@H]2CCCCNC(=O)[C@H](CC(N)=O)NC(=O)[C@@H](CC(=O)O)NC(=O)[C@H](Cc3cnc[nH]3)NC(=O)[C@@H](Cc3ccccc3)NC(=O)[C@H]([C@@H](C)CC)NC(=O)[C@@H](CCCN)NC2=O)[C@@H](C)CC)CS1 [Bacitracin] + O=C(N[C@H](CO)[C@H](O)c1ccc([N+](=O)[O-])cc1)C(Cl)Cl [Chloramphenicol]
fitness, S. aureus Newman [2]
Conditions	first compound 18.75 µg/mL	first compound 37.5 µg/mL	first compound 75 µg/mL
partner 0.75 µg/mL	0.589	0.182	0.0093
partner 1.5 µg/mL	0.38	0.0293	0.0143
partner 3 µg/mL	0.0184	0.0086	0.0146

Conditions	Bliss interaction score
B. subtilis 168 [3]	-0.106
S. aureus DSM 20231	-0.0262
S. aureus Newman [4]	-0.0971
S. pneumoniae D39V	-0.0459

CN[C@@H]1[C@H](O[C@H]2[C@H](O[C@H]3[C@H](O)[C@@H](O)[C@H](N=C(N)N)[C@@H](O)[C@@H]3N=C(N)N)O[C@@H](C)[C@]2(O)C=O)O[C@@H](CO)[C@H](O)[C@H]1O [Streptomycin] + CCCCCCCCCC(=O)N[C@@H]1[C@H]([C@@H]([C@H](O[C@H]1OC2=C3C=C4C=C2OC5=C(C=C(C=C5)[C@H]([C@H]6C(=O)N[C@@H](C7=C(C(=CC(=C7)O)OC8[C@H]([C@H]([C@@H]([C@H](O8)CO)O)O)O)C9=C(C=CC(=C9)[C@H](C(=O)N6)NC(=O)[C@@H]4NC(=O)[C@@H]1C2=CC(=CC(=C2)OC2=C(C=CC(=C2)[C@H](C(=O)N[C@H](CC2=CC(=C(O3)C=C2)Cl)C(=O)N1)N)O)O)O)C(=O)O)O[C@H]1[C@@H]([C@H]([C@@H]([C@H](O1)CO)O)O)NC(=O)C)Cl)CO)O)O [Teicoplanin]
fitness, S. aureus Newman [2]
Conditions	first compound 1 µg/mL	first compound 2 µg/mL	first compound 4 µg/mL
partner 0.1562 µg/mL	≥ 1	≥ 1	–
partner 0.3125 µg/mL	≥ 1	0.932	–
partner 0.625 µg/mL	0.917	0.803	0.344

fitness, S. aureus Newman [2], one replicate
Conditions	first compound 2 µg/mL	first compound 4 µg/mL	first compound 8 µg/mL
partner 0.62 µg/mL	0.737	0.574	0.0838
partner 1.24 µg/mL	0.527	0.0741	0.0255
partner 2.48 µg/mL	0.0707	0.0385	0.103

Conditions	Bliss interaction score
B. subtilis 168 [3]	-0.0977
S. aureus DSM 20231	-0.227
S. aureus Newman [4]	-0.118
S. pneumoniae D39V	-0.0928
